Source: patent US20230066011A1, “PYRROLOPYRIMIDINE DERIVATIVE, AND PHARMACEUTICAL COMPOSITION FOR PREVENTING OR TREATING PROTEIN KINASE-RELATED DISEASE COMPRISING SAME AS ACTIVE INGREDIENT” (VORONOI CO., LTD., priority 2019, published 2023)

Columns and labels:
MDA-MB-231 cell line = experiment: Inhibition of proliferation of MDA-MB-231 cancer cells (Cell Titer-Glo); format: cell-based; settings: Homo sapiens, 72 hours
How it was run: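 Luminescence from Cell Titer-Glo (10 min, room temperature) gave GI50 after 72 h compound treatment. Final compound levels spanned 0.000169–10.000000 μM over 11 points, 3-fold steps; 2,000 cells/well grown in DMEM or RPMI.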

human GST-CLK1 = target: T1, human GST-CLK1 (Homo sapiens, UniProt P49759); experiment: GST-CLK1 enzyme inhibition, ADP-Glo kinase assay; format: biochemical; settings: ATP 10 μM, GST-CLK1 129-end
T1 construct: purified human GST-CLK1 (129-end, SignalChem) enzyme; purchased SignalChem
T1 sequence (P49759 129-484 limits assumed): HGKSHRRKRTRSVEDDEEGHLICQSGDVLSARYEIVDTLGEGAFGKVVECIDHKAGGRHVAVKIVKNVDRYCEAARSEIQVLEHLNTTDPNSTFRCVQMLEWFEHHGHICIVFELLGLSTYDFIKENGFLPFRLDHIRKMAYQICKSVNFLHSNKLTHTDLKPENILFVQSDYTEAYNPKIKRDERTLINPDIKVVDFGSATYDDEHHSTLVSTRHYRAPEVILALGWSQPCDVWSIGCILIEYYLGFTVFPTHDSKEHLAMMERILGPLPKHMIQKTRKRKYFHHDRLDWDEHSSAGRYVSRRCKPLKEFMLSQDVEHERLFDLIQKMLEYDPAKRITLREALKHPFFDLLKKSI
How it was run: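 ADP-Glo luminescence read-out, relative to untreated solvent control, gave IC50 (nM) from triplicate data sets. Reactions ran an hour at 25° C with 3 ng GST-CLK1 (residues 129-end), 10 μM ATP and specific substrate in Tris-HCl pH 7.4 buffer with MgCl2, BSA and DTT.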

human GST-DYRK1A = target: T2, human GST-DYRK1A (Homo sapiens, UniProt Q13627); experiment: GST-DYRK1A enzyme inhibition, ADP-Glo kinase assay; format: biochemical; settings: ATP 10 μM, GST-DYRK1A full length, read-out: DYRK1 IC50
T2 construct: purified human GST-DYRK1A (full length, Thermo Scientifics) enzyme; purchased Thermo Scientifics
How it was run: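 Full-length enzyme (10 ng) was incubated with 10 μM ATP and a specific substrate for 1 h at 25 °C in 40 mM Tris-HCl pH 7.4, 20 mM MgCl2, 0.5 mg/mL BSA, 50 μM DTT. Luminescence was read against a solvent control, and IC50 values were derived from 3 data sets.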

LRRK2 (G2019S) = LRRK2 (G2019S) (Homo sapiens, UniProt Q5S007, G2019S); experiment: LRRK2 G2019S enzyme inhibition, ADP-Glo kinase assay; format: biochemical; parameters: purchased SignalChem L10-12GG; settings: ATP 25 μM
LRRK2 (G2019S), sequence (Q5S007 970-2527 G2019S limits assumed): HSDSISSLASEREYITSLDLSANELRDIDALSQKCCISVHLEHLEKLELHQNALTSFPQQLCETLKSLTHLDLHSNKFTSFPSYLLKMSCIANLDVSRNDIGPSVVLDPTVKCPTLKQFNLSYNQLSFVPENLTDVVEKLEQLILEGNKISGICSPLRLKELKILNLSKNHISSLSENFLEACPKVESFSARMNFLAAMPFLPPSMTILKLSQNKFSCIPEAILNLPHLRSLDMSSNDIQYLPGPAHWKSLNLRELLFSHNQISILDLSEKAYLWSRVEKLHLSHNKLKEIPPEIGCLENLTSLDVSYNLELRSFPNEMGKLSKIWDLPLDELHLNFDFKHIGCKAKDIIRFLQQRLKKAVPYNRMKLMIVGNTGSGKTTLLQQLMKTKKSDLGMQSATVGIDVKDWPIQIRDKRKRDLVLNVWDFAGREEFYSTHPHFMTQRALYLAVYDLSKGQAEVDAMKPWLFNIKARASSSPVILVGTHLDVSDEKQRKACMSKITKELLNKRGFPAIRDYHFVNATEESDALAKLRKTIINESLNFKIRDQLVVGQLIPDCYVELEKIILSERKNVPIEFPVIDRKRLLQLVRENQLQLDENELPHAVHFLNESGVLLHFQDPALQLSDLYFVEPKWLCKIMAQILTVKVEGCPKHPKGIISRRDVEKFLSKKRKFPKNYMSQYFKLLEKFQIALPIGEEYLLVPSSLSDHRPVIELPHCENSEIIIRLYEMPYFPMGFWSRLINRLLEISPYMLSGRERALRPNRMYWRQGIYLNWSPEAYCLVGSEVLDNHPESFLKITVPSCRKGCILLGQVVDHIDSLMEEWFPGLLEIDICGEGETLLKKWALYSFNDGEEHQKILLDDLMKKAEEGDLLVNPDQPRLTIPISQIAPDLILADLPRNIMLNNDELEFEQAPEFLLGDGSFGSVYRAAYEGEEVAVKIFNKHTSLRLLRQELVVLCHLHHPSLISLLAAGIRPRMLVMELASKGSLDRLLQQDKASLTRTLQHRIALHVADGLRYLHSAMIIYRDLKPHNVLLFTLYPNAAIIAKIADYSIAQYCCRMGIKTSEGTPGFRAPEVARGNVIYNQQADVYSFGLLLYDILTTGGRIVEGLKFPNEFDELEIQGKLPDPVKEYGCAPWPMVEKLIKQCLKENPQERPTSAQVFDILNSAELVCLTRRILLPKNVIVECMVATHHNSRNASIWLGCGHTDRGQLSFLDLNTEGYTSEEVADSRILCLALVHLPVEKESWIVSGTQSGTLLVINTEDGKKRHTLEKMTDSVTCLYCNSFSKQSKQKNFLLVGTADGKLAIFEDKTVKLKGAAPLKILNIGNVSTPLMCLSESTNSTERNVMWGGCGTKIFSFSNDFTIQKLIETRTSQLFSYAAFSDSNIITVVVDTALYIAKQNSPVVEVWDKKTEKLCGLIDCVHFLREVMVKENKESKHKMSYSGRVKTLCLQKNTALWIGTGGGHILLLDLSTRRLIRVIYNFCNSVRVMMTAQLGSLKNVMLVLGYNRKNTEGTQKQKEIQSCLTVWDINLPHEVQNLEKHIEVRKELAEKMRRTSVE
How it was run: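 IC50 derived from luminescent ADP-Glo readout against untreated solvent control, twelve final compound concentrations from 50 μM downward. Reaction: recombinant human LRRK2 G2019S enzyme, 25 μM ATP, substrate, pH 7.4 Tris buffer with MgCl2/BSA/DTT, 25° C. for 2 hours.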

SHP-77 = experiment: Inhibition of proliferation of SHP-77 cancer cells (Cell Titer-Glo); format: cell-based; settings: Homo sapiens, SHP77, 72 hours
Protocol: To evaluate an inhibitory effect on the proliferation of cancer cells, each of an MDA-MB-231 cell line (Korean Cell Line Bank #30026) and an MDA-MB-468 cell line as triple-negative breast cancer cell lines, and SHP-77 (ATCC #CRL-2195) as a small-cell lung cancer cell line was cultured in DMEM (HyClone #SH30243) or an RPMI medium (HyClone #SH3027.01) to analyze a cell growth rate. More specifically, a cell line was plated on a 96-well flat bottom plate (Corning #3903) at a density of 2,000 cells/100 μL per well, and then treated with 11 concentrations of the Example compound, a solution of which was diluted 3-fold so that a final concentration of the compound was 10.000000, 3.333333, 1.111111, 0.370370, 0.123457, 0.041152, 0.013717, 0.004572, 0.001524, 0.000508, and 0.000169 μM. After 72 hours, each of the culture media was treated with 100 μL of Cell Titer-Glo (Promega G7573), and then cultured at room temperature for 10 minutes. Then, a degree of luminescence was measured using a microplate reader. A GI50 value was calculated from the measured degree of luminescence using Prism (Version 8.2 GraphPad) software.

LRRK2 = LRRK2 (Homo sapiens, UniProt Q5S007); experiment: LRRK2 enzyme inhibition, ADP-Glo kinase assay; format: biochemical; parameters: purchased Invitrogen PR8604B; settings: ATP 10 μM
LRRK2, sequence (Q5S007 970-2527 limits assumed): as the sequence (Q5S007 970-2527 G2019S limits assumed) above, with S1050G counted along it
How it was run: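 ADP-Glo luminescent read-out of ADP formed by purified human LRRK2 enzyme (25 ng), 10 μM ATP, 0.2 μg substrate, 25° C for 2 h, Tris-HCl pH 7.4 buffer with MgCl2, BSA, DTT. Inhibition versus untreated solvent control over twelve final concentrations (50 μM downward) gives IC50.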

| GI50 (MDA-MB-231 cell line) [nM] | IC50 (human GST-CLK1) [nM] | IC50 (human GST-DYRK1A) [nM] | IC50 (LRRK2 (G2019S)) [nM] | GI50 (SHP-77) [nM] | IC50 (LRRK2) [nM] | SMILES |
| --- | --- | --- | --- | --- | --- | --- |
| 51 to 100 | 301 to 1000 | 301 to 1000 | < 100 | 51 to 100 | < 100 | CNc1nc(Nc2ccc(S(=O)(=O)N3CCOCC3)cc2OC)nc2[nH]cc(C#N)c12 [Example 62, 2-((2-methoxy-4-(morpholinosulfonyl)phenyl)amino)-4-(methylamino)-7H-pyrrolo[2,3-d]pyrimidine-5-carbonitrile] |
| 301 to 1000 | 301 to 1000 | 301 to 1000 | < 100 | 301 to 1000 | < 100 | CCNc1nc(Nc2ccc(S(=O)(=O)N3CCOCC3)cc2OC)nc2[nH]cc(C#N)c12 [Example 63, 4-(ethylamino)-2-((2-methoxy-4-(morpholinosulfonyl)phenyl)amino)-7H-pyrrolo[2,3-d]pyrimidine-5-carbonitrile] |
| < 50 | 301 to 1000 | 301 to 1000 | < 100 | < 50 | < 100 | CCCNc1nc(Nc2ccc(S(=O)(=O)N3CCOCC3)cc2OC)nc2[nH]cc(C#N)c12 [Example 64, 2-((2-methoxy-4-(morpholinosulfonyl)phenyl)amino)-4-(propylamino)-7H-pyrrolo[2,3-d]pyrimidine-5-carbonitrile] |
| 301 to 1000 | 301 to 1000 | 301 to 1000 | < 100 | 301 to 1000 | < 100 | COCCNc1nc(Nc2ccc(S(=O)(=O)N3CCOCC3)cc2OC)nc2[nH]cc(C#N)c12 [Example 69, 2-((2-methoxy-4-(morpholinosulfonyl)phenyl)amino)-4-((2-methoxyethyl)amino)-7H-pyrrolo[2,3-d]pyrimidine-5-carbonitrile] |
| 301 to 1000 | 301 to 1000 | 301 to 1000 | < 100 | 301 to 1000 | < 100 | COc1cc(S(=O)(=O)N2CCOCC2)ccc1Nc1nc(NC2CC2)c2c(C#N)c[nH]c2n1 [Example 70, 4-(cyclopropylamino)-2-((2-methoxy-4-(morpholinosulfonyl)phenyl)amino)-7H-pyrrolo[2,3-d]pyrimidine-5-carbonitrile] |
| 101 to 300 | 301 to 1000 | 301 to 1000 | < 100 | 51 to 100 | < 100 | COc1cc(S(=O)(=O)N2CCOCC2)ccc1Nc1nc(NC2CCC2)c2c(C#N)c[nH]c2n1 [Example 71, 4-(cyclobutylamino)-2-((2-methoxy-4-(morpholinosulfonyl)phenyl)amino)-7H-pyrrolo[2,3-d]pyrimidine-5-carbonitrile] |
| < 50 | 301 to 1000 | 301 to 1000 | 301 to 1000 | < 50 | 301 to 1000 | COc1cc(S(=O)(=O)N2CCOCC2)ccc1Nc1nc(NC2CCCC2)c2c(C#N)c[nH]c2n1 [Example 72, 4-(cyclopentylamino)-2-((2-methoxy-4-(morpholinosulfonyl)phenyl)amino)-7H-pyrrolo[2,3-d]pyrimidine-5-carbonitrile] |
| < 50 | 301 to 1000 | 301 to 1000 | < 100 | < 50 | < 100 | COc1cc(S(=O)(=O)N2CCOCC2)ccc1Nc1nc(NCC2CC2)c2c(C#N)c[nH]c2n1 [Example 77, 4-((cyclopropylmethyl)amino)-2-((2-methoxy-4-(morpholinosulfonyl)phenyl)amino)-7H-pyrrolo[2,3-d]pyrimidine-5-carbonitrile] |
| < 50 | 301 to 1000 | 301 to 1000 | – | < 50 | < 100 | COCC(C)(C)Nc1nc(Nc2ccc(S(=O)(=O)N3CCOCC3)cc2OC)nc2[nH]cc(C#N)c12 [Example 78, 4-((1-methoxy-2-methylpropan-2-yl)amino)-2-((2-methoxy-4-(morpholinosulfonyl)phenyl)amino)-7H-pyrrolo[2,3-d]pyrimidine-5-carbonitrile] |
| 101 to 300 | 301 to 1000 | 301 to 1000 | < 100 | 51 to 100 | – | COc1cc(S(=O)(=O)N2CCOCC2)ccc1Nc1nc(NCC2CCCC2)c2c(C#N)c[nH]c2n1 [Example 80, 4-(cyclo(pentylmethyl)amino)-2-((2-methoxy-4-(morpholinosulfonyl)phenyl)amino)-7H-pyrrolo[2,3-d]pyrimidine-5-carbonitrile] |
| < 50 | 301 to 1000 | 301 to 1000 | < 100 | < 50 | – | COc1cc(S(=O)(=O)N2CCC(N3CCOCC3)CC2)ccc1Nc1nc(NCC(C)C)c2c(C#N)c[nH]c2n1 [Example 84, 4-(isobutylamino)-2-((2-methoxy-4-((4-morpholinopiperidin-1-yl)sulfonyl)phenyl)amino)-7H-pyrrolo[2,3-d]pyrimidine-5-carbonitrile] |
| < 50 | 101 to 300 | 301 to 1000 | < 100 | 51 to 100 | < 100 | COc1cc(S(=O)(=O)N2CCC(N3CCOCC3)CC2)ccc1Nc1nc(NC2CCC2)c2c(C#N)c[nH]c2n1 [Example 89, 4-(cyclobutylamino)-2-((2-methoxy-4-((4-morpholinopiperidin-1-yl)sulfonyl)phenyl)amino)-7H-pyrrolo[2,3-d]pyrimidine-5-carbonitrile] |
| < 50 | 301 to 1000 | 301 to 1000 | – | < 50 | < 100 | COc1cc(S(=O)(=O)N2CCC(N3CCOCC3)CC2)ccc1Nc1nc(NCC2CC2)c2c(C#N)c[nH]c2n1 [Example 92, 4-((cyclopropylmethyl)amino)-2-((2-methoxy-4-((4-morpholinopiperidin-1-yl)sulfonyl)phenyl)amino)-7H-pyrrolo[2,3-d]pyrimidine-5-carbonitrile] |
| < 50 | 101 to 300 | 301 to 1000 | – | < 50 | < 100 | COCC(C)(C)Nc1nc(Nc2ccc(S(=O)(=O)N3CCC(N4CCOCC4)CC3)cc2OC)nc2[nH]cc(C#N)c12 [Example 93, 4-((1-methoxy-2-methylpropan-2-yl)amino)-2-((2-methoxy-4-((4-morpholinopiperidin-1-yl)sulfonyl)phenyl)amino)-7H-pyrrolo[2,3-d]pyrimidine-5-carbonitrile] |
| 301 to 1000 | 301 to 1000 | 301 to 1000 | – | 301 to 1000 | 101 to 300 | COc1cc(S(=O)(=O)N2CCOCC2)ccc1Nc1nc(NC2CCCC2)c2c(C(F)(F)F)c[nH]c2n1 [Example 186, N^4-cyclopentyl-N^2-(2-methoxy-4-(morpholinosulfonyl)phenyl)-5-(trifluoromethyl)-7H-pyrrolo[2,3-d]pyrimidine-2,4-diamine] |
| 301 to 1000 | 301 to 1000 | 301 to 1000 | – | 301 to 1000 | < 100 | COc1cc(S(=O)(=O)N2CCC(N3CCOCC3)CC2)ccc1Nc1nc(NC2CCCC2)c2c(C(F)(F)F)c[nH]c2n1 [Example 187, N^4-cyclopentyl-N^2-(2-methoxy-4-((4-morpholinopiperidin-1-yl)sulfonyl)phenyl)-5-(trifluoromethyl)-7H-pyrrolo[2,3-d]pyrimidine-2,4-diamine] |
